This note sets out measurements from patent US20100099673A1, “DECAHYDROQUINOLINE ANALOGS AS CB2 RECEPTOR MODULATORS, USEFUL IN THE TREATMENT OF PAIN, RESPIRATORY AND NON-RESPIRATORY DISEASES” (priority 2007, published 2010).

pEC50: −log10 of the molar value. Like-named read-outs stand apart in the source and are kept apart here.

The target of one assay is human CB2 (Homo sapiens, UniProt P34972). The experiment in a line: Cyclic AMP assay (HTRF), CHO cells expressing human CB2. It counts as cell-based. As to conditions: for Emax: read-out: CB2 Emax. As to the method: (§1) Chinese Hamster Ovary cells (CHO) expressing human CB1 or human CB2 (3.3×10^5 cells/ml) were preincubated for 15 min at room temperature with tested agonist and 3-isobutyl-1-methylxanthine (IBMX; 200 μM) in phosphate buffered saline containing 1 mg/ml BSA (assay buffer) followed by 30 min incubation with forskolin in a total volume of 10 μl. The optimal forskolin concentration for each cell line was established in a separate experiment and adjusted to stimulate 70% of maximal cAMP response. cAMP content was measured using an HTRF assay (CisBio) according to the manufacturer's two step protocol.
Chain of human CB2 (P34972 whole entry): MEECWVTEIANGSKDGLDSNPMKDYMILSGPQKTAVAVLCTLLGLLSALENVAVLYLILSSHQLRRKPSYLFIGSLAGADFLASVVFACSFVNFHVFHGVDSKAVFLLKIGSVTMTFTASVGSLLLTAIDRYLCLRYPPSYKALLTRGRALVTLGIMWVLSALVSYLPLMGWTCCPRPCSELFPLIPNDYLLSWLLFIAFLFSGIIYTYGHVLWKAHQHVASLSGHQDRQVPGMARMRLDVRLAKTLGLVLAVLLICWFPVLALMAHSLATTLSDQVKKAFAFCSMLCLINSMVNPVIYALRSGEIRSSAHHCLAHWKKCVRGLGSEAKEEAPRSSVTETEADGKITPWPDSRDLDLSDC
(§2) In this assay, compounds of the invention have an IP ranging from 1 nM to >17000 nM. The Examples below have an IP ranging from 1 nM to >17000 nM.
Background: Time-resolved FRET reads energy transfer from a long-lived donor to a nearby acceptor.

The next assay concerns the target human CB1 (Homo sapiens, UniProt P21554). The assay is described as follows: Cyclic AMP assay (HTRF), CHO cells expressing human CB1. Format: cell-based. As to the method:
as §1, §2

The mark [1] stands for this setting: IP of agonist in forskolin-stimulated cAMP HTRF assay, CHO cells expressing human CB2, read-out: CB2 (HTRF).
The mark [2] stands for this setting: forskolin-stimulated cAMP HTRF assay, CHO cells expressing human CB2.
Where [3] appears, read: IP of agonist in forskolin-stimulated cAMP HTRF assay, CHO cells expressing human CB1, read-out: CB1 (HTRF).

Chain of human CB1 (P21554 whole entry): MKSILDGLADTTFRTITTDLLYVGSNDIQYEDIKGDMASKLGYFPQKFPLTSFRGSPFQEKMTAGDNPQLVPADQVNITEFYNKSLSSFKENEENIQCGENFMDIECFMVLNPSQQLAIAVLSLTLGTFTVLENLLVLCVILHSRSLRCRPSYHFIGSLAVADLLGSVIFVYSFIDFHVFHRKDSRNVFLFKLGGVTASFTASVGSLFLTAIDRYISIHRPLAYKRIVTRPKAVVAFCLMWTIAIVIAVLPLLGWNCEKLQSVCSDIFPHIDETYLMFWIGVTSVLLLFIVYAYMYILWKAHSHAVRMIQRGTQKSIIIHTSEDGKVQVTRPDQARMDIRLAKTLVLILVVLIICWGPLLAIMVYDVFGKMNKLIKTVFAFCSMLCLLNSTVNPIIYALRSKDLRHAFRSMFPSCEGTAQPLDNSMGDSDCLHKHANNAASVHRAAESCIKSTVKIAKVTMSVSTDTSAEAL

One may read the Emax as the maximal effect, on the per cent scale that the assay sets. In the case of `O=C(c1ccccc1)N1CCC(O)(c2cccnc2)[C@H]2CCCC[C@@H]21` (stereo in doubt) [Example 258, 1-benzoyl-4-pyridin-3-yldecahydroquinolin-4-ol], the pEC50 on human CB2 (setting [1]) is 6.03. The Emax on human CB2 (setting [2]) came out at 86%.
In the case of `O=C(c1ccon1)N1CC[C@](O)(c2ccccc2)[C@H]2CCCC[C@H]21` (single isomer, unassigned) [Example 131, 1-(isoxazol-3-ylcarbonyl)-4-phenyldecahydroquinolin-4-ol], the pEC50 on human CB1 (setting [3]) is < 4.77; on human CB2 (setting [1]) it was 7.43. Also, the Emax at human CB2 (setting [2]) stood at 100%.
On to `CC(C)(O)c1ccnc(N2CC[C@](O)(c3ccccc3)[C@H]3CCCC[C@H]32)c1` (relative stereo) [Example 287, (cis)-1-[4-(1-hydroxy-1-methylethyl)pyridin-2-yl]-4-phenyldecahydroquinolin-4-ol], for which the pEC50 at human CB1 (setting [3]) was 4.98; on human CB2 (setting [1]), 8.89. Besides, on human CB2 (setting [2]), the Emax was 99%.
Taken in the same sequence, the figures for `O=C(c1cccnc1)N1CC[C@](O)(c2ccccc2)[C@H]2CCCC[C@H]21` (relative stereo) [Example 135, cis-4-phenyl-1-(pyridin-3-ylcarbonyl)decahydroquinolin-4-ol] were 5.17, 8.00 and 100%.
Consider `Cn1cc(S(=O)(=O)N2CC[C@](O)(c3ccccc3)[C@H]3CCCC[C@H]32)c(C(F)(F)F)n1` (stereo in doubt) [Example 289, 1-{[1-methyl-3-(trifluoromethyl)-1h-pyrazol-4-yl]sulfonyl}-4-phenyldecahydroquinolin-4-ol], for which the pEC50 is < 4.77 at human CB1 (setting [3]) and 7.39 at human CB2 (setting [1]). The Emax at human CB2 (setting [2]) amounted to 101%.
Consider `O=C(c1ccccc1)N1CCC(O)(Cc2ccccc2)[C@H]2CCCC[C@@H]21` (stereo partly shown) [Example 260, 1-benozyl-4-benzyldecahydroquinolin-4-ol], for which the pEC50 on human CB2 (setting [1]) was 7.05. The Emax on human CB2 (setting [2]) is 93%.
`O=C(Nc1cccnc1)N1CC[C@](O)(c2ccccc2)[C@H]2CCCC[C@H]21` [Example 291, 4-hydroxy-4-phenyl-n-pyridin-3-yloctahydroquinoline-1(2H)-carboxamide]: the pEC50 at human CB1 (setting [3]) is < 4.77; on human CB2 (setting [1]) it was 5.96. Further, on human CB2 (CHO), the Emax was determined as 76%.
Take `O[C@]1(c2ccccc2)CCN(Cc2n[nH]c3ccccc23)[C@@H]2CCCC[C@@H]21` (stereo in doubt) [Example 274, 1-(1H-indazol-3-ylmethyl)-4-phenyldecahydroquinolin-4-ol]: the pEC50 at human CB1 is < 4.77; on human CB2, 7.72. The Emax on human CB2 (CHO) stood at 102%.
